Test results reported in patent US5264457A, “Phenyl amidines sulfonamides useful as platelet aggregation inhibitors” (G. D. Searle & Co., priority 1992, dated 1993).

Test system: platelet aggregation in dog PRP
Test: In-vitro platelet aggregation in PRP (ADP-induced, dog platelet-rich plasma)
Assay type: cell-based
Conditions: Canis lupus familiaris; for IC50: concentration inhibiting aggregation by 50%; for inhibition at 10 µM: test concentration of 10 μM
Description: Compounds of the invention were evaluated by an […] assay to determine compound activity as an inhibitors of platelet aggregation.
Healthy male or female dogs were fasted for 8 hours prior to drawing blood; then 30 mL whole blood was collected using a butterfly needle and 30 cc plastic syringe with 3 ml of 0.129M buffered sodium citrate (3.8%). The syringe was rotated carefully as blood was drawn to mix the citrate. Platelet-rich plasma (PRP) was prepared by centrifugation at 975×g for 3.17 minutes at room temperature, allowing the centrifuge to coast to a stop without braking. The PRP was removed from the blood with a plastic pipette and placed in a plastic capped, 50 ml Corning conical sterile centrifuge tube which was held at room temperature. Platelet poor plasma (PPP) was prepared by centrifuging the remaining blood at 2000×g for 15 minutes at room temperature allowing the centrifuge to coast to a stop without braking. The PRP was adjusted with PPP to a count of 2-3×10^8 s platelets per ml. 400 μL of the PRP preparation and 50 μL of the compound to be tested or saline were preincubated for 1 minute at 37° C. in a BioData aggregometer (BioData, Horsham, Pa.). 50 μL of adenosine 5'diphosphate (ADP) (50 μm final concentration) was added to the cuvettes and the aggregation was monitored for 1 minute. All compounds are tested in duplicate. Inhibition of aggregation for each sample was determined using the formula: % inhibition=(Tinh -Tbas)/(Tagg -Tbas ×100 where Tbas is % of light transmission in PRP (baseline), Tagg is % of light transmission in the aggregated PRP sample (saline control) and Tinh is % of light transmission in the sample containing the inhibitor.

Row | Compound | IC50 [µM] | inhibition at 10 µM [%]
1 | Cc1ccc(S(=O)(=O)NCC(CC(=O)O)NC(=O)CCCCc2ccc(C(=N)N)cc2)cc1 (racemic) [Example 1, (±)-3-[[5-[4-(Aminoiminomethyl)phenyl]-1-oxopentyl]amino]-4-[[(4-methylphenyl)sulfonyl]amino]butanoic acid] | 1 | 100
2 | COc1ccc(S(=O)(=O)NCC(CC(=O)O)NC(=O)CCCCc2ccc(C(=N)N)cc2)cc1 (racemic) [Example 2, (±)-3-[[5-[4-(Aminoiminomethyl)phenyl]-1-oxopentyl]amino]-4-[[(4-methoxyphenyl)sulfonyl]amino]butanoic Acid] | 8 | 100
3 | CCOC(=O)CC(CNS(=O)(=O)c1ccc(C)cc1)NC(=O)CCCCc1ccc(C(=N)N)cc1 (racemic) [Example 3, (±) Ethyl-3-[[5-[5-(Aminoiminomethyl)phenyl]-1-oxopentyl]amino]-4-[[(4-methylphenyl)sulfonyl]amino]butanoate] | – | 20
